Where a SMILES comes first, the peptide text is derived from it. The star is where a group is joined. Cbz = O=C(OCc1ccccc1)*; CH2F = FC*
What was measured:
photoreceptors [1] = assay: In vivo propidium iodide staining of photoreceptors after retinal detachment, wild-type retina; set-up: species or system mouse; details: three days after retinal detachment
Method: In vivo propidium iodide (PI) staining was performed by injecting 5 μl of PI (50 μg/ml) into the subretinal space three days after retinal detachment. After two hours, the eyes were enucleated and 10 μm thick cryosections were cut, air-dried, and fixed in 100% ethanol. DAPI was used to counterstain the nuclei. The center of the detached retina was photographed by fluorescence microscope, and the number of PI-positive cells in ONL was analyzed by ImageJ software.
(*, P<0.05; **, P<0.01; scale bar, 100 μm.)

photoreceptors [2] = assay: TEM quantification of photoreceptor death after retinal detachment in RIP-3−/− mice; assay type: in vivo; details: day three after retinal detachment
Method: TEM was performed as previously described (Hisatomi T et al. (2008). J. CLIN. INVEST. 118:2025-2038). […] Over 200 photoreceptors each eye were photographed and subjected to quantification of cell death modes in a masked fashion. Photoreceptors showing cellular shrinkage and nuclear condensation were defined as apoptotic cells, while photoreceptors associated with cellular and organelle swelling and discontinuities in nuclear and plasma membrane were defined as necrotic cells. The presence of electron-dense granular materials were reported to occur subsequent to both apoptotic and necrotic cell death and cells with these findings were labeled simply as end-stage cell death/unclassified (Hisatomi T et al. (2003) AM. J. PATHOL. 162:1869-1879; Erickson P A et al. (1983) INVEST. OPHTHALMOL. VIS. SCI. 24:927-942).
The morphology of the RIP-3−/− retina after retinal detachment was also assessed by TEM. […] RIP-3 deficiency inhibits the switch to necrotic cell death by Z-VAD treatment and prevents photoreceptor death after retinal detachment. Scale bar, 5 μm.

RIP-3−/− RPE cells = assay: Viability of RIP-3−/− RPE cells treated with poly I:C (Cell Counting Kit-8); assay type: cell-based, mice
Method: (§1) As described in Example 11, primary RPE cells were extracted from the retina of mice and cultured in the presence of 5 μg/ml of poly I:C for 48 hours or with PBS. Cell viability was measured using Cell Counting Kit-8 (Dojindo Laboratories, Kumamoto, Japan). This assay is based on the cleavage of 2-(2-methoxy-4-nitrophenyl)-3-(4-nitrophenyl)-5-(2,4-disulfophenyl)-2H-tetrazolium, monosodium salt (WST-8) by the mitochondrial dehydrogenase enzyme to produce a formazan dye. After incubation with WST-8 for two hours at 37° C., absorbance was measured at 450 nm to determine cell viability.
Without poly I:C treatment, the viability of RPE cells was similar in WT and RIP-3−/− cells.

photoreceptors [3] = assay: Poly I:C-induced dry AMD model, ONL thickness; assay type: in vivo, mice
Source text: In this example, the mechanism of photoreceptor cell death in dry AMD was investigated using a polyinosinic:polycytidylic acid (Poly I:C)-induced dry AMD model (Yang et al. (2009) NEJM 359(14):1456-63). Poly I:C is a synthetic double-stranded RNA (dsRNA) analog that activates toll-like receptor 3 (TLR3) signaling (FIG. 20A). Furthermore, dsRNA are known to exist in the drusen of human AMD patients. As depicted in FIG. 20A, activation of the TLR3 signaling results in activation of RIP-1 kinase pathway. […] In the experiments described herein, 2-3 μl of Poly I:C (1 mg/ml) was injected into the subretinal space of the eye (e.g., approximately 2-3 μg of Poly I:C was administered to the eye) to induce AMD.
The thickness of the outer nuclear layer (ONL) was also determined in WT or RIP-3−/− mice at 14 days following treatment with poly I:C. Sections were randomly selected from either WT or RIP-3−/− mice following poly I:C treatment and the retina was photographed. The ONL thickness was measured in each section by masked observers.
To determine the effect of Nec-1 and a pan-caspase inhibitor in the treatment of AMD, TUNEL assay was performed to assess photoreceptor cell death in the poly I:C induced AMD model. […] The thickness of ONL was also measured.

primary RPE cells = assay: Viability of primary RPE cells treated with poly I:C (Cell Counting Kit-8); assay type: cell-based, mice; details: WT primary RPE cells, 5 μg/ml poly I:C for 48 hours
Method: as §1

[4] = test system: CD11b-positive macrophage/microglia; assay: CD11b immunofluorescence after retinal detachment in WT mice; assay type: in vivo
Method: (§2) Immunofluorescence was performed as previously reported (Hisatomi et al. (2008) J CLIN INVEST 118:2025-2038. The enucleated eyes were frozen in OCT compound (Sakura Finetechnical Co., Tokyo, Japan). Five μm-thick sections were cut, air dried and fixed in cold acetone for 10 minutes. Rat anti-CD11b (1:50; BD Biosciences, San Diego, Calif.) was used as the primary antibody and incubated at 4° C. overnight. A nonimmune serum was used as a negative control. Alexa Fluor 594-conjugated goat anti-rat IgG (Invitrogen, Carlsbad, Calif.) was used as the secondary antibody and incubated at room temperature for one hour. The specimens were imaged by confocal microscopy using the Leica HCX APOL40× lens.
FIG. 11C-D show immunofluorescence for CD11b (FIG. 11C) and quantification of CD11b-positive macrophage/microglia (FIG. 11D) in WT and RIP-3−/− retina after retinal detachment.

AIF = AIF nuclear translocation (AIF/TUNEL double staining) after retinal detachment; assay type: in vivo; details: three days after retinal detachment
Method: Immunohistochemistry (IHC) was performed as previously reported (Murakami Y et al. (2008) AM J PATHOL 173:1326-1338). Rabbit anti-AIF antibody (1:100; Cell Signaling Technology, Danvers, Mass.) was used as the primary antibody. The specimens were imaged by confocal microscopy using the Leica HCX APOL40× lens.
as §2, with “Rabbit anti-AIF antibody (1:100; Cell Signaling Technology, Danvers, Mass.)” for “Rat anti-CD11b (1:50; BD Biosciences, San Diego, Calif.)”, “non-immune” for “nonimmune”, “488-conjugated” for “594-conjugated”, “anti-rabbit” for “anti-rat”, “IgG” for “IgG (Invitrogen, Carlsbad, Calif.)”
Apoptosis-inducing factor (AIF) is a caspase-independent inducer of cell death, which is released from the mitochondria and translocates into the nuclei during cell death (Susin S A et al. (1999) NATURE 397:441-446). […]

COC(=O)CC(NC(=O)C(C)NC(=O)C(NC(=O)OCc1ccccc1)C(C)C)C(=O)CF (stereo not drawn) [Z-VAD, Benzyloxycarbonyl-Val-Ala-Asp(OMe)-fluoromethylketone] (Cbz-Val-Ala-Asp(OMe)-CH2F; configuration not given here)
number of PI-positive photoreceptors in the ONL (photoreceptors [1]): 817.4±104.2 cells/mm^2
% apoptotic cells (TEM) (photoreceptors [2]): 4.8±1.3%
% necrotic cells (TEM) (photoreceptors [2]): 6.4±1.3%
% unclassified (TEM) (photoreceptors [2]): 0.9±0.4%
viability of RPE cells (RIP-3−/− RPE cells): protected from cell death
ONL thickness (photoreceptors [3]): minimal effect
viability of RPE cells (primary RPE cells): did not protect WT RPE cells
infiltration of CD11b-positive cells (immunofluorescence) [4]: significantly increased infiltration
AIF/TUNEL-double positive cells (AIF nuclear translocation) (AIF): 1021.9±233.9 cells/mm^2
